What was measured:
[1] = test system: male ob/ob mouse model of Type II diabetes; assay: Antidiabetic effects in ob/ob mice (serum chemistry after 2 weeks daily oral dosing); format: in vivo; set-up: key to Glucose ± SEM: serum glucose in mg/dl; Triglycerides ± SEM / Free Fatty Acids ± SEM: unit not given here; conditions: for Glucose / Glucose (% of Control): 2 weeks; for Glucose ± SEM: Table 15
Protocol: Obese (ob/ob) mice have a defect in the protein leptin, a regulator of appetite and fuel metabolism, leading to hyperphagia, obesity and diabetes.
Male obese (ob/ob homozygote) C57BL/6J mice, approximately 8 weeks of age, were obtained from Jackson Labs (Bar Harbor, Me.) and randomly assigned into groups of 5 animals each such that the body weights (45-50 g) and serum glucose levels (≧300 mg/dl in fed state) were similar between groups. A minimum of 7 days was allowed for adaptation after arrival. All animals were maintained under controlled temperature (23° C.), relative humidity (50±5%) and light (7:00-19:00), and allowed free access to standard chow (Formulab Diet 5020 Quality Lab Products, Elkridge, Md.) and water.
Treatment cohorts were given daily oral doses of vehicle (1% hydroxypropyl-methylcellulose), Compounds BI, CF, CA, CB, CC, or CD for 2 weeks. At the end of the treatment period 100 μl of venous blood was withdrawn in a heparinized capillary tube from the retro-orbital sinus of ob/ob mice for serum chemistry analysis.

[2] = test system: db/db mice; assay: Antidiabetic effects in db/db mice, Example B (2 weeks daily oral dosing); format: in vivo, mouse
From the text: db/db mice have a defect in leptin signaling, leading to hyperphagia, obesity and diabetes. Moreover, unlike ob/ob mice on a C57BL/6J background, db/db mice on a C57BL/KS background undergo failure of their insulin-producing pancreatic islet cells, resulting in progression from hyperinsulinemia (associated with peripheral insulin resistance) to hypoinsulinemic diabetes.
Male obese (db/db homozygote) C57BL/Ksola mice approximately 8 weeks of age, were obtained from Jackson Labs (Bar Harbor, Me.) and randomly assigned into groups of 5-7 animals such that the body weights (50-55 g) and serum glucose levels (≧300 mg/dl in fed state) were similar between groups; male lean (db/+heterozygote) mice served as cohort controls. A minimum of 7 days was allowed for adaptation after arrival. All animals were maintained under controlled temperature (23° C.), relative humidity (50±5%) and light (7:00-19:00), and allowed free access to standard chow (Formulab Diet 5008, Quality Lab Products, Elkridge, Md.) and water.
Treatment cohorts were given daily oral doses of Vehicle (1% hydroxypropylmethylcellulose), Compounds BI, CE, BT, BV, […] or Fenofibrate for 2 weeks. At the end of the treatment period 100 μl of venous blood was withdrawn in a heparinized capillary tube from the retro-orbital sinus of db/db mice for serum chemistry analysis.

[3] = biological target: T1, Mouse PPARγ LBD fusion protein (Mus musculus, UniProt P37238); assay: Transcription activation potential, GAL4 luciferase reporter in Hepa1.6 cells; format: cell-based
T1 sequence (P37238 238-503): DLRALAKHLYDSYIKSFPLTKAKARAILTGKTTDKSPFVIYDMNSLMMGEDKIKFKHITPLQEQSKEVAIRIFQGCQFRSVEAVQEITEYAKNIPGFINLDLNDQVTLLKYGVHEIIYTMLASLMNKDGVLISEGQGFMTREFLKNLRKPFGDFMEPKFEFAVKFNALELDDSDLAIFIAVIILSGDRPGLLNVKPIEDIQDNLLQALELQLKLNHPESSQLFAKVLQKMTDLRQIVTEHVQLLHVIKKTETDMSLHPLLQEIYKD
Protocol: (§1) Cells were seeded in 24 well plates the day prior to transfection at 5×10^4−2×10^5 cells/well, depending upon cell type. Cells were transfected using Lipofectamine 2000 reagent from Invitrogen. A total of 0.8 μg DNA/well was added to 50 μL of Optimem Reduced Serum media (serum free; Gibco). Lipofectamine 2000 was added (2.5 μL/well) to another tube containing 50 μL of Optimem media. Plasmid DNA was added at a ratio of 4:3 (reporter:activator); where appropriate, salmon sperm DNA was substituted for activator expressing plasmid. […] DNA constructs containing the mouse PPARα or PPARγ LBD fused to the GAL4 DNA binding domain were also used. The two solutions were incubated at room temperature for 5 min, and then combined. The combined solution was incubated at room temperature for approximately 30 min. Cells were washed once with PBS, and 100 μL of transfection mix added to each well. Plates were incubated at 37° C. in a 5% CO2 incubator for 4.5 hr, followed by aspiration of the transfection mix, with plates refed using EMEM complete media (supplemented with 10% FBS, 1× Glutamine). 24 hr post-transfection, plates were treated with the appropriate compounds in EMEM complete media, followed by washing once with PBS and addition of 100 μL 1× reporter lysis buffer/well (Promega) 24 hr after treatment. Plates went through one freeze/thaw cycle prior to analysis. Approximately 10 μL of lysate was added to 100 μL of firefly luciferase substrate, mixed by pipetting, and analyzed on a luminometer for 10 s using the integration function (relative luciferase units/RLU) or on a Microbeta Trilux (luciferase counts per second/LCPS). Each treatment was performed in triplicate, and in multiple, separate experiments.

[4] = test system: Human PPARγ LBD fusion protein; assay: Transcription activation potential, GAL4 luciferase reporter in C3A cells; format: cell-based
Protocol: as §1

[5] = biological target: T1, Mouse PPARγ LBD fusion protein; assay: as above; format: cell-based
Protocol: as §1

[6] = 100 mg/kg, 2 weeks daily oral dosing
[7] = serum, 2 weeks daily oral, dose not given in Table 17 (see Table 16)

- transcription activation potential (luciferase) ± standard deviation ([3]; 1 μM): 210 ± 51 RLU
- transcription activation potential (luciferase) ± standard deviation ([3]; 3 μM): 256 ± 33 RLU
- transcription activation potential (luciferase) ± standard deviation ([3]; 5 μM): 254 ± 81 RLU
- transcription activation potential (luciferase) ± standard deviation ([3]; 7 μM): 265 ± 61 RLU
- transcription activation potential (luciferase) ± standard deviation ([3]; 10 μM): 355 ± 53 RLU
- transcription activation potential (luciferase) ± standard deviation ([3]; 30 μM): 441 ± 203 RLU
- transcription activation potential (luciferase) ± standard deviation ([3]; 100 μM): 820 ± 353 RLU
- transcription activation potential (luciferase) ± standard deviation ([5]; 1 μM test compound, Table 20b): 2.4 ± 2.26 LCPS
- transcription activation potential (luciferase) ± standard deviation ([5]; 1 μM, Table 21b): 746 ± 362 RLU
- transcription activation potential (luciferase) ± standard deviation ([5]; 3 μM test compound, Table 20b): 2.6 ± 1.41 LCPS
- transcription activation potential (luciferase) ± standard deviation ([5]; 3 μM, Table 21b): 174 ± 153 RLU
- transcription activation potential (luciferase) ± standard deviation ([5]; 5 μM, Table 21b): 996 ± 855 RLU
- transcription activation potential (luciferase) ± standard deviation ([5]; 7 μM, Table 21b): 220 ± 137 RLU
- transcription activation potential (luciferase) ± standard deviation ([5]; 10 μM test compound, Table 20b): 2.2 ± 1.57 LCPS
- transcription activation potential (luciferase) ± standard deviation ([5]; 10 μM, Table 21b): 479 ± 353 RLU
- transcription activation potential (luciferase) ± standard deviation ([5]; 30 μM test compound, Table 20b): 4.9 ± 4.42 LCPS
- transcription activation potential (luciferase) ± standard deviation ([5]; 30 μM, Table 21b): 557 ± 639 RLU
- transcription activation potential (luciferase) ± standard deviation ([5]; 100 μM test compound, Table 20b): 2.63 ± 1.96 LCPS
- transcription activation potential (luciferase) ± standard deviation ([5]; 100 μM, Table 21b): 3330 ± 1848 RLU
- transcription activation potential (luciferase) ± standard deviation ([5]; 200 μM test compound, Table 20b): 65.77 ± 10.55 LCPS
Compound: Cc1cccc(C)c1COc1cccc(C(=O)CCC(=O)O)c1 [Compound BI, 4-(3-(2,6-Dimethylbenzyloxy)phenyl)-4-oxobutyric acid]
- Free Fatty Acids ± SEM ([1]; 30 mg/kg): 1272.8 ± 32.5
- Triglycerides ± SEM ([1]; 30 mg/kg): 66.6 ± 3.6
- Glucose ([1]; 30 mg/kg daily oral): 301.4 ± 29.0 mg/dL
- Glucose (% of Control) ([1]; 30 mg/kg daily oral): 71.0 ± 7.0 % of Control
- Glucose ± SEM ([1]; 30 mg/kg): 301.4 ± 29.0
- Glucose ([1]; 60 mg/kg daily oral): 248.8 ± 20.0 mg/dL
- Glucose (% of Control) ([1]; 60 mg/kg daily oral): 59.0 ± 5.0 % of Control
- Free Fatty Acids ± SEM ([1]; 100 mg/kg): 1245.4 ± 20.0
- Triglycerides ± SEM ([1]; 100 mg/kg): 55.0 ± 3.4
- Glucose ([1]; 100 mg/kg daily oral): 196.3 ± 6.0 mg/dL
- Glucose (% of Control) ([1]; 100 mg/kg daily oral): 46.0 ± 1.0 % of Control
- reduction in blood glucose (in words) [1, 6]: significant reduction
- reduction in free fatty acids (in words) [1, 6]: significant reduction
- reduction in triglycerides (in words) [1, 6]: significant reduction
- Glucose ± SEM ([1]; 100 mg/kg): 196.3 ± 6.0
- Glucose (% of Control) ([2]; 100 mg/kg daily oral, 2 weeks): 50 ± 6 % of Control
- Glucose ([2]; nonfasting, 100 mg/kg daily oral, 2 weeks): 347.0 ± 43.1 mg/dL
- Free Fatty Acids ± SEM [2, 7]: 1997.2 ± 196.4 µM
- Triglycerides ± SEM [2, 7]: 77.8 ± 5.3 mg/dL
- transcription activation potential (luciferase) ± standard deviation ([4]; 1 μM test compound): 43.3 ± 11.6 LCPS
- transcription activation potential (luciferase) ± standard deviation ([4]; 3 μM test compound): 26 ± 4.5 LCPS
- transcription activation potential (luciferase) ± standard deviation ([4]; 10 μM test compound): 40.1 ± 13.5 LCPS
- transcription activation potential (luciferase) ± standard deviation ([4]; 30 μM test compound): 22.9 ± 10.3 LCPS
- transcription activation potential (luciferase) ± standard deviation ([4]; 100 μM test compound): 34.6 ± 15.6 LCPS
- transcription activation potential (luciferase) ± standard deviation ([4]; 200 μM test compound): 227.3 ± 25.8 LCPS

Reference: patent publication US7932290B2, “Method for the treatment of metabolic disorders” (Wellstat Biologics Corporation, priority 2003, dated 2011)
